The term GI50 denotes the concentration that inhibits growth by half.

These results are taken from patent publication US10738024B2, “Compounds for treatment of angiogenesis-mediated diseases” (Indiana University Research and Technology Corporation, priority 2013, dated 2020).

“Also recorded” adds a separate entry of the source. Like-named read-outs stand apart in the source and are kept apart here.

Series [1] relates to HRECs. The experiment in a line: ALAMARBLUE proliferation assay in HRECs. It is filed as cell-based, human. Conditions: for GI50: Homo sapiens, HREC; for in vitro anti-proliferative activity in HRECs: result in words, FIGS. 6B, 6D, 14. As to the method: Particularly, in a 96-well clear bottom black plate, cells (2,500 cells per well) were seeded in a total volume of 100 μL EGM-2. After 24 hours of incubation of the plate at 37° C. and 5% CO2, a DMSO solution of synthetic cremastranone (1) or SH-11052 (2) was added in the concentration range of 0.5 nM to 500 μM (final DMSO concentration=1%). The plate was then further incubated for 48 hours before adding 11.1 μL of ALAMARBLUE® reagent to each well. Four hours after the addition of ALAMARBLUE®, fluorescence readings with excitation and emission wavelengths of 560 nm and 590 nm, respectively, were taken and the data were analyzed in GraphPad Prism software (v. 6.0). Dose response curves were generated and the GI50 values were calculated using the following equation: Y=100/(1+10^(X−Log GI50)).
(§1) For proliferation assays, cells (2500 per well) were seeded in a 96-well clear bottom black polystyrene plate in a total volume of 100 μL. HUVECs and HRECs were grown in EGM-2 and CSC+ media respectively, while 92-1 and Y79 cells were maintained in RPMI+10% FBS, penicillin/streptomycin and RB medium (IMDM+10% FBS+penicillin/streptomycin+10 μg/mL insulin+55 μM β-mercaptoethanol) respectively. After 24 hours of incubation of the plate at 37° C., the compounds were dissolved in DMSO and added in the concentration range of 500 μM to 0.5 nM. The plate was then incubated at 37° C. and 5% CO2 conditions for 48 hours before adding 11.1 μL of alamar blue reagent for each well. Four hours after the addition of ALAMARBLUE® reagent, fluorescence readings with excitation and emission wavelengths of 560 nm and 590 nm respectively were taken and the data was analyzed in GraphPad Prism software. The dose response curves were generated and the GI50 values were calculated using the equation: Y=100/(1+10^(X−Log GI50)) (Table 1).

The subject of series [2] is Y-79 retinoblastoma cells. The series is described as follows: ALAMARBLUE proliferation assay in Y-79 retinoblastoma cells. It is filed as cell-based. Conditions: 50% growth inhibitory concentration, 48 hours. As to the method: as §1
In general terms: Alamar Blue is a resazurin reagent that responds to reducing activity.

For series [3], the system named is HRECs. The series is described as follows: Apoptosis of HRECs by cleaved caspase-3 staining. It is filed as cell-based, human. As to the method:
Further, cells (25,000 per coverslip) were seeded onto coverslips coated with Attachment Factor (Cell Systems, Kirkland, Wash., USA) and incubated at 37° C. and 5% CO2 in EGM-2 until ˜80% confluence was achieved. The cells were then incubated for 4 hours with the indicated concentrations of SH-11052 (2). Staurosporine (SP; 1 μM) was used as a positive control. After the incubation, the cells were fixed in 4% paraformaldehyde for 20 minutes at room temperature followed by three quick washes in Tris buffered saline pH 7.4 (TBS). The cells were permeabilized by incubating with 0.5% Triton X-100 for 10 minutes and then blocked in 10% block solution (DAKO, Glostrup, Denmark) in TBS plus 1% bovine serum albumin (BSA) for 1 hour. The cells were then incubated with cleaved caspase-3 (D175) antibody (1:200 dilution) overnight at 4° C. Dylight 555 conjugated goat anti-rabbit secondary antibody (1:400) was used to probe the cleaved caspase-3 antibody. The coverslips were mounted using Vectashield mounting medium containing DAPI (Vector Labs, Burlingame, Calif., USA) for nuclear staining. The cells were imaged using an LSM 700 confocal microscope (Zeiss, Thornwood, N.Y., USA).

Another series relates to NF-κB p65. The experiment in a line: TNF-α induced NF-κB p65 nuclear translocation in HRECs (immunofluorescence). As to conditions: 10 ng/ml TNF-α for 20 minutes. It is filed as cell-based, human. On the procedure:
Cells (25,000 per coverslip) were seeded onto coverslips coated with Attachment Factor (Cell Systems, Kirkland, Wash., USA) and incubated at 37° C. and 5% CO2 for 24 hours in EGM-2. The cells were starved in 0.1% serum-EBM-2 for 8 hours followed by 0.1% serum-EBM-2 medium for one hour in the presence of different concentrations of SH-11052 (2). The cells were induced with 10 ng/ml TNF-α, a known pro-inflammatory cytokine and inducer of NF-κB, for 20 minutes and fixed with 4% paraformaldehyde solution for 20 minutes at room temperature. Since NF-κB exerts its transcriptional activity in the nucleus, blockade of stimulus-induced nuclear translocation of NF-κB is an indication of NF-κB pathway inhibition.
Cells were quickly washed three times in TBS and permeabilized by incubating with 0.5% Triton X-100 for 10 minutes. The cells were blocked in 10% block solution (DAKO) in TBS plus 1% BSA followed by incubation with an antibody against NF-κB p65 (1:50 dilution). Dylight 488-conjugated goat anti-mouse secondary antibody (1:200 dilution) was used to probe the NF-κB p65 antibody. The coverslips were mounted using Vectashield mounting medium containing DAPI (Vector Labs) for nuclear staining. The cells were imaged using an LSM 700 confocal microscope (Zeiss). […]

Setting [4] is: 50% growth inhibitory concentration, 48 hours, alamarBlue, read-out: GI50 HREC.

For `COc1ccc(CC2COc3cc(OC)c(O)c(O)c3C2=O)cc1O` (single isomer, unassigned) [Compound 2], the GI50 was 43 µM with HRECs [1] (setting [4]) and 87 µM in series [2]. Further, the “in vitro anti-proliferative activity in HRECs” value with HRECs [1] is “demonstrated in vitro anti-proliferative activity”. Also, the “apoptosis of HRECs (cleaved caspase-3 staining)” value with HRECs [3] (100 μM, 4 hours) is given as “negligible apoptosis”. Also, the “nuclear translocation of NF-κB (p65) upon TNF-α stimulation / NF-κB signaling” value with NF-κB p65 (listed as SH-11052 (2)) was “blocked NF-κB signaling; also recorded: inhibited”.

For the compound `COc1ccc(CC2COc3cc(OC)c(OC)c(OC)c3C2=O)cc1OC(=O)[C@H](Cc1ccccc1)NC(=O)OC(C)(C)C` (stereo partly drawn) [Compound 6c, (2S)-2-methoxy-5-((5,6,7-trimethoxy-4-oxochroman-3-yl)methyl)phenyl 2-((tert-butoxycarbonyl)amino)-3-phenylpropanoate], the GI50 in the series on HRECs [1] (setting [4]) was 0.087 µM; with HRECs [1] (text of Example 15, FIG. 14, read-out: HREC GI50) it was 0.15 µM; in series [2], 12 µM. In addition, the “in vitro anti-proliferative activity in HRECs” value in the series on HRECs [1] is on record as “inhibition of proliferation”. Also, the “apoptosis of HRECs” value with HRECs [3] (concentration not given, FIGS. 16A-16B, listed as SH-11037 (6c)) is on record as “did not cause apoptosis; also recorded: did not promote apoptosis”. Besides, the “nuclear translocation of NF-κB (p65) upon TNF-α stimulation / NF-κB signaling” value in the series with NF-κB p65 (listed as SH-11037 (6c)) is “did not inhibit NF-κB signaling”.
